What all share (type): functional
The test system of assay [1] is Enterococcus faecalis. Put plainly: Antibacterial activity against Enterococcus faecalis ATCC 6569 assessed as inhibition of bacterial growth incubated for 24 hrs by microdilution assay. (Dilution methods test growth across graded concentrations, often in twofold steps.)
For assay [2], the system named is Enterococcus faecalis. Put plainly: Antibacterial activity against Enterococcus faecalis ATCC 29212 assessed as inhibition of bacterial growth incubated for 24 hrs by microdilution assay.
Assay [3] concerns Enterococcus durans. Nature of the assay: Antibacterial activity against Enterococcus durans BIO 0114 assessed as inhibition of bacterial growth incubated for 24 hrs by microdilution assay.
Assay [4] concerns Streptococcus agalactiae. Put plainly: Antibacterial activity against Streptococcus agalactiae ATCC 13813 assessed as inhibition of bacterial growth incubated for 24 hrs by microdilution assay.
Assay [5] has as its system Streptococcus pyogenes. Put plainly: Antibacterial activity against Streptococcus pyogenes ATCC 19615 assessed as inhibition of bacterial growth incubated for 24 hrs by microdilution assay.
The test system of assay [6] is Streptococcus mutans. Nature of the assay: Antibacterial activity against Streptococcus mutans ATCC 25175 assessed as inhibition of bacterial growth incubated for 24 hrs by microdilution assay.
For assay [7], the system named is Streptococcus sobrinus. Put plainly: Antibacterial activity against Streptococcus sobrinus ATCC 27351 assessed as inhibition of bacterial growth incubated for 24 hrs by microdilution assay.
In assay [8] the test system is Serratia marcescens. Put plainly: Antibacterial activity against Serratia marcescens ATCC 13880 assessed as inhibition of bacterial growth incubated for 24 hrs by microdilution assay. Conditions: subsp. marcescens ATCC 13880.
For assay [9], the system named is Salmonella typhimurium. Put plainly: Antibacterial activity against Salmonella enterica subsp. enterica serovar Typhimurium ATCC 14028 assessed as inhibition of bacterial growth incubated for 24 hrs by microdilution assay.
Assay [10] relates to Shigella flexneri. Put plainly: Antibacterial activity against Shigella flexneri CCCD S006 assessed as inhibition of bacterial growth incubated for 24 hrs by microdilution assay.
Assay [11] has as its system Escherichia coli. Nature of the assay: Antibacterial activity against Escherichia coli ATCC 25922 assessed as inhibition of bacterial growth incubated for 24 hrs by microdilution assay.
Assay [12] relates to Proteus mirabilis. Nature of the assay: Antibacterial activity against Proteus mirabilis ATCC 25933 assessed as inhibition of bacterial growth incubated for 24 hrs by microdilution assay.
The subject of assay [13] is Escherichia coli. Put plainly: Antibacterial activity against Escherichia coli STEC 2C1 assessed as inhibition of bacterial growth incubated for 24 hrs by microdilution assay.
Assay [14] relates to Escherichia coli. Put plainly: Antibacterial activity against Escherichia coli EOL 931 assessed as inhibition of bacterial growth incubated for 24 hrs by microdilution assay.
The subject of assay [15] is Escherichia coli. Nature of the assay: Antibacterial activity against Escherichia coli ETEC 2589093 assessed as inhibition of bacterial growth incubated for 24 hrs by microdilution assay.
The subject of assay [16] is Escherichia coli. Nature of the assay: Antibacterial activity against Escherichia coli EHEC 933 assessed as inhibition of bacterial growth incubated for 24 hrs by microdilution assay.
In assay [17] the test system is Escherichia coli. Nature of the assay: Antibacterial activity against Escherichia coli EAEC I 4913 assessed as inhibition of bacterial growth incubated for 24 hrs by microdilution assay.
The subject of assay [18] is Escherichia coli. Put plainly: Antibacterial activity against Escherichia coli EIEC E20851 assessed as inhibition of bacterial growth incubated for 24 hrs by microdilution assay.
Assay [19] deals with Escherichia coli. Nature of the assay: Antibacterial activity against Escherichia coli EPEC E234969 assessed as inhibition of bacterial growth incubated for 24 hrs by microdilution assay.
The test system of assay [20] is Acinetobacter baumannii. Put plainly: Antibacterial activity against Acinetobacter baumannii ATCC 19606 assessed as inhibition of bacterial growth incubated for 24 hrs by microdilution assay. Conditions: ATCC 19606 = CIP 70.34 = JCM 6841.
Assay [21] has as its system Stenotrophomonas maltophilia. Put plainly: Antibacterial activity against Stenotrophomonas maltophilia EM 0104assessed as inhibition of bacterial growth incubated for 24 hrs by microdilution assay.
Assay [22] relates to Staphylococcus aureus. Put plainly: Antibacterial activity against Staphylococcus aureus ATCC 29213 assessed as inhibition of bacterial growth incubated for 24 hrs by microdilution assay.
The test system of assay [23] is Staphylococcus epidermidis. Put plainly: Antibacterial activity against Staphylococcus epidermidis ATCC 12228 assessed as inhibition of bacterial growth incubated for 24 hrs by microdilution assay.
In assay [24] the test system is Klebsiella pneumoniae. Put plainly: Antibacterial activity against Klebsiella pneumoniae ATCC 700603 assessed as inhibition of bacterial growth incubated for 24 hrs by microdilution assay.
Assay [25] concerns Klebsiella pneumoniae. Nature of the assay: Antibacterial activity against Klebsiella pneumoniae ATCC 1705 assessed as inhibition of bacterial growth incubated for 24 hrs by microdilution assay.

Converted amounts (≈) assume the structure as drawn.

By MIC is commonly meant the lowest concentration that inhibits growth of the organism. `CC1(C)S[C@@H]2[C@H](NC(=O)[C@H](N)c3ccccc3)C(=O)N2[C@H]1C(=O)O` [AMPICILLIN]: the MIC in assay [1] was 4 µg/mL (≈ 11.4 µM); in [2] it was 4 µg/mL (≈ 11.4 µM); in assay [3] it was 4 µg/mL (≈ 11.4 µM); in assay [4] it was 0.25 µg/mL (≈ 0.715 µM); in [5], 0.0625 µg/mL (≈ 0.179 µM); in [6], 0.5 µg/mL (≈ 1.43 µM). For the same molecule, the MIC in assay [7] is 0.125 µg/mL (≈ 0.358 µM); in assay [8], 4 µg/mL (≈ 11.4 µM); in assay [9] it was 4 µg/mL (≈ 11.4 µM); in assay [10], 4 µg/mL (≈ 11.4 µM); in assay [11], 4 µg/mL (≈ 11.4 µM).
For the molecule `O=C(O)c1cn(C2CC2)c2cc(N3CCNCC3)c(F)cc2c1=O` [CIPROFLOXACIN], in assay [12], the MIC came to 0.25 µg/mL (≈ 0.754 µM).
With `C[C@@H](O)[C@H]1C(=O)N2C(C(=O)O)=C(S[C@@H]3CN[C@H](C(=O)N(C)C)C3)[C@H](C)[C@H]12` [MEROPENEM], the MIC in assay [13], in assay [14], in assay [15], in assay [16], in [17] and in [18] was 0.625 µg/mL (≈ 1.63 µM) in each case. Also, in assay [19], the MIC was determined as 0.625 µg/mL (≈ 1.63 µM).
Take `CN(C)c1ccc(O)c2c1C[C@H]1C[C@H]3[C@H](N(C)C)C(O)=C(C(N)=O)C(=O)[C@@]3(O)C(O)=C1C2=O` [MINOCYCLINE]: the MIC in assay [20] and in [21] was 2 µg/mL (≈ 4.37 µM) in each case.
For `Cc1onc(-c2ccccc2)c1C(=O)N[C@@H]1C(=O)N2[C@@H]1SC(C)(C)[C@@H]2C(=O)O` [OXACILLIN], the MIC in [22] and in assay [23] was 0.25 µg/mL (≈ 0.623 µM) throughout.
In the case of COLISTIN, the MIC in [24] and in assay [25] was 1 µg/mL in each case.

For the origin of these results see ChEMBL document CHEMBL4825691, “Antimicrobial, modulatory, and antibiofilm activity of tt-farnesol on bacterial and fungal strains of importance to human health” (2021).
